{
  "source": "patent US9920383B2",
  "about": "“Active substances for increasing the stress defense in plants to abiotic stress, and methods of finding them” (Bayer Intellectual Property GMBH, priority 2005, dated 2018)",
  "key": {"[1]": {"tested_on": "maize plants", "assay": "Drought stress experiment with maize plants, seed dressing with active substance", "format": "in vivo, maize cv. Lorenzo", "conditions": "for Relative dry matter [%]: relative to control group 2 (−S/−D)", "experimental": "Maize seeds cv. Lorenzo were dressed with the compound 4-cyclopropylamino-carbonyl-N-(2-methoxybenzoyl)benzenesulfonamide (=VIII-3). To this end, 10 g of seeds were incubated with 20 mg of active substance dissolved in 2 ml of methylene chloride, with gentle shaking, until the solvent had evaporated (approx. 30 minutes). The seeds of the control group were only dressed with solvent. Thereafter, the treated seeds were placed into pots with compost (diameter 10 cm, in each case 10 seeds per pot), and the maize seedlings were raised for 10 days in a controlled-environment chamber under defined light, moisture and temperature conditions [white light, long day (16 hours light, 8 hours dark), 70% atmospheric humidity, 24° C.]. In each case 2×10 pots were used for the control groups and for the drought stress experiment. While the plants were raised, they were watered from below for 20 minutes every 2 days by raising the water level in a tray. 10 days after the seeds had germinated, the maize plants were exposed to the drought stress. To this end, the plants of control group 1 (without dressing with active substance) and of the test group (with dressing with active substance) were only irrigated every 7 days as described above. In the case of the plants of control group 2 (without dressing with active substance) and of the test group 2 (with dressing with active substance), the normal irrigation regime was reclaimed. After 3 weeks of drought stress conditions, the experiment was evaluated as follows. The aerial plant parts were cut off and dried overnight at 50° C. On the next day, the foliar biomass was determined in [g] (dry matter) per pot.\nThe data were averaged over the in each case 10 pots of the plant group. The numerical values shown in table 1 are relative values in [%] relative to the data obtained with the control group 2 (without dressing with active substance, normal irrigation regime)."}, "[2]": {"tested_on": "maize plants", "assay": "Chill stress experiment (field) with maize plants, seed dressing", "format": "in vivo, maize (dent com)", "conditions": "for Chill damage [%]: number of plants with chill damage > 20% of the total number of plants in the test plot", "experimental": "One control plant contains untreated seed. Approximately 8 days after the seed emerged, the seedlings were in the one-leaf stage and were exposed for 5 days to the following temperature conditions:\nAfter this chill period, the test plots were scored. For this purpose, all plants were assessed individually, and plants with at least 20% chill symptoms based on the total leaf area (burns and/or chloroses) were considered to be damaged."}, "[3]": {"tested_on": "Zm.11840.1.A1_at: putative N-carbamyl-L-amino acid amidohydrolase", "assay": "Gene expression profiling (maize genome array), heat stress", "format": "in vivo, maize cv. Lorenzo", "conditions": "vs unstressed solvent-dressed control", "experimental": "(§1) Maize seeds cv. Lorenzo were dressed as described in example 1 with the compound VIII-3 (=4-cyclopropylaminocarbonyl-N-(2-methoxybenzoyl)benzenesulfonamide) or with solvent. The plants were raised for 10 days in a controlled-environment chamber (conditions: see example 1).\n(§2) Thereafter, the plants were exposed to the following stress conditions: • (1) Heat stress: 6 h at 45° C. • (2) Drought stress: 7 days without irrigation, 24° C.\n(§3) The control plants of the specific experimental group were kept under the standard conditions described in example 1 (temperature, irrigation).\n(§4) After the stress treatment, the leaves of the stressed plants and of the unstressed control plants were harvested, shock-frozen in liquid nitrogen and stored at −80° C. until processed. All experiments were carried out in replications of in each case 2 pots.\n(§5) The labeled RNA probes for the DNA chip hybridization were prepared as described in the protocols (Expression Analysis. Technical Manual) from Affymetrix (Affymetrix Inc., 3380 Central Expressway, Santa Clara, Calif., USA). First, total RNA was isolated from in each case 500 mg of the harvested leaves. In each case 10 μg of total RNA were used for the cDNA first- and second-strand synthesis. The cDNA was amplified with T7 polymerase and simultaneously labeled with biotin-UTP. In each case 20 μg of this biotinylated […] were employed for the hybridization of the maize genome array from Affymetrix. This DNA microarray contains DNA sequences whose totality represents 13339 genes. Thereafter, the DNA microarrays were washed in the Affymetrix Fluidics Station, stained with streptavidin/phycoerythrin (Molecular Probes, P/N S-866) and scanned with the appropriate Agilent Laser Scanner (Agilent Gene Array Scanner). The fluorescence data obtained were analyzed using Affymetrix's Microarray Suite 5 software. After the quality assurance had been performed, all DNA chip analyses were stored in a database. To determine relevant expression values (induction factors, repression factors), the absolute expression values of the genes from the respective stress experiments were compared with the values of the respective control experiments (i.e. without abiotic stress and solvent-dressing only), based on the scoring function predetermined by the Affymetrix software. The resulting 4 expression values per gene were averaged by calculating the median value. These median values are shown in the results tables as induction factors. Similarity comparisons of expression profiles of various experiments and cluster analyses were carried out using the “genedata expressionist” software from Genedata (Genedata, Maulbeerstr. 46, CH-4016 Basel, Switzerland).\n(§6) The analysis of the expression profiles specifically searched for genes which are induced by the test substances only in conjunction with abiotic stress, but not by the substances or by stress alone. Such genes can be considered as indicators for additional anti-stress effects of the substances which exceed the known safener effect. The induction patterns of the indicator genes described permit the targeted finding of active substances for increasing the abiotic stress tolerance in crop plants. • a) Under heat stress conditions, i.e. the tested maize plants (dressed with 2 mg a.i. 4-cyclopropylaminocarbonyl-N-(2-methoxybenzoyl)benzenesulfonamide/g seeds) were exposed to a temperature of 45° C. for 6 hours 7 days after germination.\n(§7) • Condition A: heat stress (6 hours, 45° C.) • Condition B: Seeds dressed with 4-cyclopropylaminocarbonyl-N-(2-methoxybenzoyl)benzenesulfonamide (VIII-3)/NO heat stress • Condition C: Seeds dressed with 4-cyclopropylaminocarbonyl-N-(2-methoxybenzoyl)benzenesulfonamide (VIII-3)+heat stress (6 hours, 45° C.)."}, "[4]": {"tested_on": "Zm.13498.1.S1_at: membrane protein", "assay": "Gene expression profiling (maize genome array), heat stress", "format": "in vivo, maize cv. Lorenzo", "conditions": "vs unstressed solvent-dressed control", "experimental": "as §1, §2, §3, §4, §5, §6, §7"}, "[5]": {"tested_on": "Zm.3040.1.S1_at uricase II (E.C.1.7.3.3); nodule specific uricase", "assay": "Gene expression profiling (maize genome array), heat stress", "format": "in vivo, maize cv. Lorenzo", "conditions": "vs unstressed solvent-dressed control", "experimental": "as §1, §2, §3, §4, §5, §6, §7"}, "[6]": {"tested_on": "Zm.4274.1.S1_at: cytochrome P450", "assay": "Gene expression profiling (maize genome array), heat stress", "format": "in vivo, maize cv. Lorenzo", "conditions": "vs unstressed solvent-dressed control", "experimental": "as §1, §2, §3, §4, §5, §6, §7"}, "[7]": {"tested_on": "Zm12587.1.S1.s_at: glycosyltransferase", "assay": "Gene expression profiling (maize genome array), heat stress", "format": "in vivo, maize cv. Lorenzo", "conditions": "vs unstressed solvent-dressed control", "experimental": "as §1, §2, §3, §4, §5, §6, §7"}, "[8]": {"tested_on": "Zm18994.2.A1_at: putative serine transferase", "assay": "Gene expression profiling (maize genome array), heat stress", "format": "in vivo, maize cv. Lorenzo", "conditions": "vs unstressed solvent-dressed control", "experimental": "as §1, §2, §3, §4, §5, §6, §7"}, "[9]": {"conditions": "seeds dressed with VIII-3 (2 mg a.i./g seeds), NO heat stress"}, "[10]": {"conditions": "seeds dressed with VIII-3 + heat stress (6 hours, 45° C.)"}},
  "data": [
    {"smiles": "COc1ccccc1C(=O)NS(=O)(=O)c1ccc(C(=O)NC2CC2)cc1", "note": "[VIII-3, 4-cyclopropylaminocarbonyl-N-(2-methoxybenzoyl)benzenesulfonamide]", "values": [
      {"measurement": "Relative dry matter [%]", "setting": "[1]; +S/+D: seeds dressed (20 mg per 10 g seeds), 3 weeks drought stress", "value": 80, "unit": "%"},
      {"measurement": "Relative dry matter [%]", "setting": "[1]; +S/−D: seeds dressed, normal irrigation (no drought stress)", "value": 100, "unit": "%"},
      {"measurement": "average foliar biomass (dry matter) over the undressed control plant", "setting": "[1]; under drought stress (control group 1 vs test group 1)", "value": "significantly increased"},
      {"measurement": "Chill damage [%]", "setting": "[2]; dressed with 0.003 mg per seed", "value": 12, "unit": "%"},
      {"measurement": "Chill damage [%]", "setting": "[2]; dressed with 0.03 mg per seed", "value": 12, "unit": "%"},
      {"measurement": "chill damage compared with control plot", "setting": "[2]; test plots with dressing with active substance", "value": "significantly reduced"},
      {"measurement": "plants showing damage symptoms", "setting": "[2]; test plots with dressing with active substance (both quantities)", "value": "approximately 12%"},
      {"measurement": "induction factor Zm.11840.1.A1_at, Condition B", "setting": "[3]; [9]", "value": 1.75},
      {"measurement": "induction factor Zm.11840.1.A1_at, Condition C", "setting": "[3]; [10]", "value": 4.10},
      {"measurement": "induction factor Zm.13498.1.S1_at, Condition B", "setting": "[4]; [9]", "value": 1.73},
      {"measurement": "induction factor Zm.13498.1.S1_at, Condition C", "setting": "[4]; [10]", "value": 4.45},
      {"measurement": "induction factor Zm.3040.1.S1_at, Condition B", "setting": "[5]; [9]", "value": 1.33},
      {"measurement": "induction factor Zm.3040.1.S1_at, Condition C", "setting": "[5]; [10]", "value": 2.48},
      {"measurement": "induction factor Zm.4274.1.S1_at, Condition B", "setting": "[6]; [9]", "value": 1.22},
      {"measurement": "induction factor Zm.4274.1.S1_at, Condition C", "setting": "[6]; [10]", "value": 1.93},
      {"measurement": "induction factor Zm12587.1.S1.s_at, Condition B", "setting": "[7]; [9]", "value": 1.45},
      {"measurement": "induction factor Zm12587.1.S1.s_at, Condition C", "setting": "[7]; [10]", "value": 2.33},
      {"measurement": "induction factor Zm18994.2.A1_at, Condition B", "setting": "[8]; [9]", "value": 1.46},
      {"measurement": "induction factor Zm18994.2.A1_at, Condition C", "setting": "[8]; [10]", "value": 2.66}
    ]}
  ]
}
